The results in this text go back to patent publication US5478828A, “Piperazinyl-and piperidinyl-cyclohexanols” (Bristol-Myers Squibb Company, priority 1995, dated 1995).

As a reminder, the IC50 is the concentration that inhibits the measured activity by half.

One assay has as its target 5-HT1A receptor. Kind of assay: In vitro receptor binding, 5-HT1A. The method, then:
In vitro IC50 test values for binding to the 5-HT1A receptor were determined for representative compounds of Formula I by the method of S. J. Peroutka, Brain Research 344, 167 (1985); with only minor modifications. Test IC50 values lower than 100 nM are considered to reflect activity at the 5-HT1A receptor.

For the next assay, the target named is T1, D2 receptor (Bos taurus, UniProt P20288).
T1 construct: from tissue
T1 sequence (P20288 whole entry): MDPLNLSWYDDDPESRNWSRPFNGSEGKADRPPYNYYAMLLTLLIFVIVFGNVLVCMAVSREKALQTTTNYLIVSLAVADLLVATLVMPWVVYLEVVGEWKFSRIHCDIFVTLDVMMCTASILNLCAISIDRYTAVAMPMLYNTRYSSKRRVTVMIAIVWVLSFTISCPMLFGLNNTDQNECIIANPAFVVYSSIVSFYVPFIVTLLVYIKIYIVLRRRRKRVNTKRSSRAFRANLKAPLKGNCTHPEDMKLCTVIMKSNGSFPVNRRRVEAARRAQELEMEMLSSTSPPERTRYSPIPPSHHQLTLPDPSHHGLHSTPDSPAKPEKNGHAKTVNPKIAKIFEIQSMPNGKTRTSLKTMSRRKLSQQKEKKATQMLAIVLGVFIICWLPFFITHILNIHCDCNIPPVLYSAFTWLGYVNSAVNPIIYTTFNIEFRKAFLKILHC
Briefly: In vitro receptor binding, D2.

[1] abbreviates: in vitro, read-out: D2 receptor binding IC50.

Structures can show the parent of a compound that is named as a salt. Where two headings read alike, the source gives them in different places.

Experimental for D2 receptor: In vitro IC50 test values for binding to the D2 receptor were determined for representative compounds of Formula I by the method of Burt, Creese, and Snyder, Molecular Pharmacology 12, 800 (1976); Creese, Burt, and Snyder, Science 196, 326 (1977); and Creese, Burt and Snyder, Science.

For the molecule `O[C@]1(c2ccc3c(c2)OCO3)CC[C@H](N2CCC(Cc3ccccc3)CC2)CC1` [Example 15, Z-1-(1,3-Benzodioxol-5-yl)-4-[4-(phenylmethyl)-1-piperidinyl]cyclohexanol], the half-maximal inhibitory concentration (IC50) on 5-HT1A receptor is 0.0054 µM; on D2 receptor (setting [1]), > 1 µM.

With `COc1ccc([C@]2(O)CC[C@@H](N3CCC(Cc4ccccc4)CC3)CC2)cc1` [Example 16, Z-1-(4-Methoxyphenyl)-4-[4-(phenylmethyl)-1-piperidinyl]cyclohexanol], the IC50 at 5-HT1A receptor was determined as 0.0156 µM; at D2 receptor (setting [1]), 2.71 µM.

Turning to `O[C@]1(c2ccc3c(c2)OCO3)CC[C@H](N2CCN(Cc3ccccc3)CC2)CC1` [Example 17, Z-1-(1,3-Benzodioxol-5-yl)-4-[4-(phenylmethyl)-1-piperazinyl]cyclohexanol], the IC50 at 5-HT1A receptor was 0.02 µM; at D2 receptor (setting [1]) it was 1.71 µM.

In the case of `COc1ccc([C@]2(O)CC[C@@H](N3CCN(Cc4ccccc4)CC3)CC2)cc1` [Example 18, Z-1-(4-Methoxyphenyl):4-[4-(phenylmethyl)-1-piperazinyl]cyclohexane], the IC50 is 0.0465 µM on 5-HT1A receptor and 1.83 µM on D2 receptor (setting [1]).

On to `CO[C@]1(c2ccc3c(c2)OCO3)CC[C@H](N2CCN(Cc3ccccc3)CC2)CC1` [Example 19, Z-1-[4-(1,3,-Benzodioxol-5-yl)-4-methoxycyclohexyl]-4-(phenylmethyl)piperazine], for which the values for the IC50 on 5-HT1A receptor and at D2 receptor (setting [1]) were 0.014 µM and 1.35 µM, respectively.

At 5-HT1A receptor, `O[C@]1(c2ccc3c(c2)OCCO3)CC[C@@H](N2CCN(Cc3ccccc3)CC2)CC1` [Example 20-E, E-1-(1,4-Benzodioxan-6-yl)-4-[4-(phenylmethyl)-1-piperazinyl]cyclohexanol] had an IC50 of 0.0053 µM.

`O[C@]1(c2ccc3c(c2)OCCO3)CC[C@H](N2CCN(Cc3ccccc3)CC2)CC1` [Example 20-Z, Z-1-(1,4-Benzodioxan-6-yl)-4-[4-(phenylmethyl)-1-piperazinyl]cyclohexanol]: the IC50 on 5-HT1A receptor worked out at 0.0099 µM; on D2 receptor (setting [1]), 15.2 µM.

Take `COc1cccc(CN2CCN([C@H]3CC[C@](O)(c4ccc5c(c4)OCO5)CC3)CC2)c1` [Example 21, Z-1-(1,3,-Benzodioxol-5-yl)-4-[4-[(3-methoxyphenyl)methyl]-1-piperazinyl]-cyclohexanol]: the concentration for half-maximal inhibition (IC50) on 5-HT1A receptor was determined as 0.00215 µM; on D2 receptor (setting [1]) it was 1.04 µM.

In turn, `O[C@]1(c2ccc3c(c2)OCO3)CC[C@H](N2CCN(Cc3cccc(F)c3)CC2)CC1` [Example 22, Z-1-(1,3-Benzodioxol-5-yl)-4-[4-[(3-fluorophenyl)methyl]-1-piperazinyl]cyclohexanol] showed an IC50 on 5-HT1A receptor of 0.0134 µM.

For `O[C@]1(c2ccc3c(c2)OCO3)CC[C@H](N2CCN(Cc3ccccc3F)CC2)CC1` [Example 23, Z-1-(1,3-Benzodioxol-5-yl)-4-[4,[(2-fluorophenyl)methyl]-1-piperazinyl]cyclohexanol], the IC50 at 5-HT1A receptor was 0.0101 µM; on D2 receptor, 1.54 µM.

On to `Cc1ccccc1CN1CCN([C@H]2CC[C@](O)(c3ccc4c(c3)OCO4)CC2)CC1` [Example 24, Z-1-(1,3-Benzodioxol-5-yl)-4-[4-[(2-methylphenyl)methyl]-1-piperazinyl]cyclohexanol], for which the figures for the IC50 at 5-HT1A receptor and on D2 receptor (setting [1]) were 0.0042 µM and 2.55 µM, respectively.

In turn, `O[C@]1(c2ccc3c(c2)OCO3)CC[C@H](N2CCN(Cc3cccs3)CC2)CC1` [Example 26, Z-1-(1,3-Benzodioxol-5-yl)-4-[4-(2-thienylmethyl)-1-piperazinyl]cyclohexano] returned an IC50 on 5-HT1A receptor of 0.0191 µM.

`O[C@]1(c2ccc3c(c2)OCO3)CC[C@H](N2CCN(Cc3ccccc3Cl)CC2)CC1` [Example 27, Z-1-(1,3-Benzodioxol-5-yl)-4-[4-[(2-chlorophenyl)methyl]-1-piperazinyl]cyclohexanol] showed an IC50 at 5-HT1A receptor of 0.00185 µM.

For `O[C@]1(c2ccc3c(c2)OCO3)CC[C@H](N2CCN(Cc3cc(Cl)ccc3Cl)CC2)CC1` [Example 28, Z-1-(1,3-Benzodioxol-5-yl)-4-[4-[(2,5-dichlorophenyl)methyl]-1-piperazinyl]-cyclohexanol], on 5-HT1A receptor, the IC50 amounted to 0.0006 µM.

On 5-HT1A receptor, `O[C@]1(c2ccc3c(c2)OCO3)CC[C@H](N2CCN(Cc3cc(F)ccc3F)CC2)CC1` [Example 29, Z-1-(1,3-Benzodioxol-5-yl)-4-[4-[(2,5-difluorophenyl)methyl]-1-piperazinyl]-cyclohexanol] came in with an IC50 of 0.0026 µM.

In turn, `O[C@]1(c2ccc3c(c2)OCO3)CC[C@H](N2CCN(Cc3cccc(F)c3F)CC2)CC1` [Example 30, Z-1-(1,3-Benzodioxol-5-yl)-4-[4,[(2,3-difluorophenyl)methyl]-1-piperazinyl]-cyclohexanol] yielded an IC50 on 5-HT1A receptor of 0.0173 µM.

With `O[C@]1(c2ccc3c(c2)OCO3)CC[C@H](N2CCN(Cc3cc(F)cc(F)c3)CC2)CC1` [Example 31, Z-1-(1,3-Benzodioxol-5-yl)-4-[4-[(3,5-difluorophenyl)methyl]-1-piperazinyl]-cyclohexanol], the IC50 on 5-HT1A receptor came out at 0.0211 µM.

In turn, `O[C@]1(c2ccc3c(c2)OCO3)CC[C@H](N2CCN(Cc3ccccc3I)CC2)CC1` [Example 32, Z-1-(1,3-Benzodioxol-5-yl)-4-[4-[(2-iodophenyl)methyl]-1-piperazinyl]cyclohexanol] had an IC50 at 5-HT1A receptor of 0.0012 µM.

Take `O[C@]1(c2ccc3c(c2)OCO3)CC[C@H](N2CCN(Cc3cccc4c3OCO4)CC2)CC1` [Example 33, Z-1-(1,3-Benzodioxol-5-yl)-4-[4-[(1,3-benzodioxo-4-yl)methyl]-1-piperazinyl]-cyclohexanol]: the IC50 at 5-HT1A receptor was 0.0349 µM.

Turning to `COc1cccc(CN2CCN([C@H]3CC[C@](O)(c4ccc(F)cc4)CC3)CC2)c1` [Example 34, Z-1-(4-Fluorophenyl)-4-[4-[(3-methoxyphenyl)methyl]-1-piperazinyl]cyclohexanol], on 5-HT1A receptor, the IC50 came to 0.0106 µM.

As for `O[C@]1(c2ccc(F)cc2)CC[C@H](N2CCN(Cc3ccccc3Cl)CC2)CC1` [Example 35, Z-1-(4-Fluorophenyl)-4-[4-[(2-chlorophenyl)methyl]-1-piperazinyl]cyclohexanol], the IC50 at 5-HT1A receptor came out at 0.0059 µM.

As to `O[C@]1(c2ccc(C(F)(F)F)cc2)CC[C@H](N2CCN(Cc3ccccc3Cl)CC2)CC1` [Example 37, Z-1-[(4-Trifluoromethyl)phenyl]-4-[4-[(2-chlorophenyl)methyl]-1-piperazinyl]-cyclohexanol], on 5-HT1A receptor, the IC50 was determined as 0.0258 µM.

Regarding `COc1cccc(CN2CCN([C@H]3CC[C@](O)(c4ccc(C(F)(F)F)cc4)CC3)CC2)c1` [Example 38, Z-1-[(4-Trifluoromethyl)phenyl]-4-[4-[(3-methoxyphenyl)methyl]-1-piperazinyl]-cyclohexanol], the IC50 on 5-HT1A receptor turned out to be 0.0356 µM.

In the case of `COc1ccc(F)c(CN2CCN([C@H]3CC[C@](O)(c4ccc5c(c4)OCO5)CC3)CC2)c1` [Example 39, Z-1-(1,3-Benzodioxol-5-yl)-4-[4-[(2-fluoro-5-methoxyphenyl)methyl]-1-piperazinyl]cyclohexanol], the half-maximal inhibitory concentration (IC50) at 5-HT1A receptor came to 0.00075 µM.

The molecule `COc1ccc(F)c(CN2CCN([C@H]3CC[C@](O)(c4ccc(F)cc4)CC3)CC2)c1` [Example 40, Z-1-(4-Fluorophenyl)-4,-[4,-[(2-fluoro-5-methoxyphenyl)methyl]-1piperazinyl]cyclohexanol] displayed an IC50 at 5-HT1A receptor of 0.00345 µM.

As for `COc1cccc(CC2CCN([C@H]3CC[C@](O)(c4ccc5c(c4)OCCO5)CC3)CC2)c1` [Example 41, Z-1-(1,4-Benzodioxan-6-yl)-4-[4-[(3-methoxyphenyl)methyl]-1-piperidinyl]cyclohexanol], the IC50 at 5-HT1A receptor came to 0.0022 µM.

For `COc1cccc(CC2CCN([C@H]3CC[C@](O)(c4ccc5c(c4)OCO5)CC3)CC2)c1` [Example 42, Z-1-(1,3-Benzodioxol-5-yl)-4-[4-[(3-methoxyphenyl)methyl]-1-piperidinyl]cyclohexanol], at 5-HT1A receptor, the IC50 is 0.0044 µM.

On to `O[C@]1(c2ccc3c(c2)OCO3)CC[C@H](N2CCC(Cc3cc(F)ccc3F)CC2)CC1` [Example 43, Z-1-(1,3-Benzodioxol-5-yl)-4-[4-[(2,5-difluorophenyl)methyl]-1-piperidinyl]cyclohexanol], for which the IC50 on 5-HT1A receptor is 0.0049 µM.

With `COc1cccc(CC2CCN([C@H]3CC[C@](OC)(c4ccc5c(c4)OCCO5)CC3)CC2)c1` [Example 45, Z-1-[4-(1,4-Benzodioxan-6-yl)-4-methoxy-1-cyclohexyl]-4-[3-(methoxyphenyl)methyl]-piperidine fumarate], the IC50 at 5-HT1A receptor came out at 0.0034 µM.

In turn, `CO[C@]1(c2ccc3c(c2)OCO3)CC[C@H](N2CCC(Cc3cc(F)ccc3F)CC2)CC1` [Example 46, Z-1-[4-(1,3-Benzodioxol-5-yl)-4-methoxy-1-cyclohexyl]-4-[(2,5,-difluorophenyl)-methyl]piperidine fumarate] came in with an IC50 at 5-HT1A receptor of 0.0162 µM.

On 5-HT1A receptor, `O[C@]1(c2ccc(F)cc2)CC[C@H](N2CCC(Cc3ccccc3)CC2)CC1` [Example 47, Z-1-(4-Fluorophenyl)-4-[4-(phenylmethyl)-1-piperidinyl]cyclohexanol] gave an IC50 of 0.0598 µM.

For `COc1cccc(CC2CCN([C@H]3CC[C@](O)(c4ccc(F)cc4)CC3)CC2)c1` [Example 48], the half-inhibitory concentration (IC50) at 5-HT1A receptor came to 0.0319 µM.

Take `O[C@]1(c2ccc(F)cc2)CC[C@H](N2CCC(Cc3cc(F)ccc3F)CC2)CC1` [Example 49, Z-1-(4-Fluorophenyl)-4-[4-[(2,5-difluorophenyl)methyl]-1-piperidinyl]cyclohexanol]: the IC50 on 5-HT1A receptor stood at 0.0576 µM.

The molecule `O[C@]1(c2ccc3c(c2)OCO3)CC[C@H](N2CCN(Cc3ccccc3Br)CC2)CC1` [Example 50, Z-1-(1,3-Benzodioxol-5-yl)-4-[4-[(2-bromophenyl)methyl]-1-piperazinyl]cyclohexanol] gave an IC50 on 5-HT1A receptor of 0.0012 µM.

At 5-HT1A receptor, `O[C@]1(c2ccc3c(c2)OCO3)CC[C@H](N2CCN(C(c3ccccc3)c3ccccc3)CC2)CC1` [Example 51, Z-1-(1,3-Benzodioxol-5-yl)-4-[4-(diphenylmethyl)-1-piperazinyl]cyclohexanol] gave an IC50 of 0.0286 µM.

As for `CC(c1ccccc1)N1CCN([C@H]2CC[C@](O)(c3ccc4c(c3)OCO4)CC2)CC1` (stereo partly drawn) [Example 52, Z-1-(1,3-Benzodioxol-5-yl)-4-[4-(1-phenylethyl)-1-piperazinyl]cyclohexanol], at 5-HT1A receptor, the half-maximal inhibitory concentration (IC50) amounted to 0.0181 µM.
